Measured values taken from patent US12404252B2, “Salt of 2-amino-2-(2-(1-decyl-1H-1,2,3-triazol-4-yl)ethyl)propane-1,3-diol, and pharmaceutical composition containing same” (NEXTGEN BIOSCIENCE CO., LTD, priority 2021, dated 2025).
≈ marks a conversion by molar mass, not a printed value. Entries after “also recorded” stand apart in the source; their conditions may differ.

Tests used:
[1] = Standard stock solution stability, 40° C./75±5% RH; type: physicochemical; conditions: 40° C./75% RH
Protocol: The stability of the crystalline compound was examined at 40° C./75±5% RH. Physical stability was examined through comparative XRPD analysis before and after the test, and chemical stability was examined by HPLC method. The experimental conditions used in the stability test for Compound 1a and the test results are as follows.
40° C./75±5% RH: Conditions in which the vial was open and upright.
A required amount (˜1 mg) of solid material was dissolved in 1 mL of a diluent (1:1 methanol/water), and the prepared solution was analyzed by HPLC.

[2] = target: hERG potassium ion channel (Homo sapiens, UniProt Q12809)
[3] = Effect on cardiovascular system in beagle dogs (telemetry); type: in vivo; conditions: oral 12.5, 25, and 50 mg/kg
Protocol: Compound 1a was orally administered to four non-anesthetized and unrestrained male beagle dogs implanted with remote transmitters. Next, the heart rates of the four beagle dogs were measured to evaluate the effect of Compound 1a on the cardiovascular system, and whether abnormal symptoms occurred was visually checked.
In this experiment, the test substance was administered to each of the four beagle dogs in four steps. In the first administration step (0 mg/kg of Compound 1a), 0.5% MC aqueous solution as control vehicle was administered, and in the second administration step, 12.5 mg/kg of Compound 1a was administered. In the third administration step, 25 mg/kg of Compound 1a was administered, and in the fourth administration step, 50 mg/kg of Compound 1a was administered. The first to fourth administrations were performed at one-week intervals. Additionally, 0 hour before administration of the test substance, and 0.5 hours, 1 hour, 2 hours, 3 hours, 4 hours, 6 hours, 8 hours, 12 hours, and 24 hours after administration of the test substance, the heart rates of the beagle dogs were measured.

[4] = test system: adenine-induced chronic kidney disease model; test: Adenine-induced chronic kidney disease model; type: in vivo; conditions: adenine-induced CKD mice, 3 weeks
Protocol: The antifibrotic effect of Compound 1a was evaluated using an adenine-induced chronic kidney disease model. 0.5% adenine (in 0.5% CMC) was orally administered to mice for 4 weeks to induce chronic kidney disease, and Compound 1a at 10, 30, and 90 mg/kg/day and the positive control substance telmisartan 10 mg/kg/day were administered orally to the mice for 3 weeks, followed by measurement of serum creatinine, serum BUN, and kidney hydroxyproline, and histopathology. In addition, the tubular-interstitial index value was determined based on the above measurement results.

[5] = Solubility in aqueous media (HPLC); type: physicochemical; conditions: for solubility at 24 h: thermodynamic from solid
Protocol: The solubility of Compound 1a prepared in Example 1 was evaluated in several different media, including pH 1.2 hydrochloric acid buffer, pH 3.0 citrate buffer, pH 4.7 acetate buffer, pH 6.8 phosphate buffer, simulated gastric fluid, fasted-state simulated intestinal fluid, fed-state simulated intestinal fluid, and water. About 2.17 mg of sample (based on the free base of Compound 1) for each medium was taken into a 2-mL transparent glass vial and […] of medium was added (constituents of the salt were considered Compound 1: counterion=1:0.5; target concentration: 2 mg/mL). The mixture was stirred using a magnetic stirrer at 250 RPM for 24 hours at 25° C. Next, the pH and appearance of the mixture were recorded and the mixture was filtered through a MultiScreen® HTS-HV 96-well plate (manufactured by Merck; 0.45-μm hydrophilic, low-protein-binding Durapore® membrane). Solubility was determined using HPLC, and a calibration curve was created by injecting a known concentration of Compound 1a. The filtered sample was injected (diluted appropriately as necessary) and the concentration of Compound 1a (mg/mL) in the filtrate was calculated from the calibration curve (taking salt coefficient into account). The analysis results are as follows.

[6] = test system: dextran sulfate sodium (DSS)-induced colitis model; test: DSS-induced colitis mouse model, disease activity index; type: in vivo; conditions: DSS mice
Protocol: The effectiveness of Compound 1a against inflammatory bowel disease was evaluated using the dextran sulfate sodium (DSS)-induced colitis model. In the mouse model, inflammatory bowel disease was induced by administering DSS to mice at a concentration of 2.5% via drinking water. Mice were divided into a test group administered Compound 1a, a positive control group administered ozanimod or MTX (methotrexate), a vehicle group, and a normal control group, and each group had n=10. Compound 1, a compound of the present invention, was orally administered at doses of 5 and 10 mg/kg once a day for 7 days to the inflammatory bowel disease-induced model, and ozanimod as a positive control was administered orally at a dose of 5 mg/kg once a day, and MTX (methotrexate) as a positive control was administered intraperitoneally at a dose of 3 mg/kg three times a week.
DAI represents the total score of weight loss relative to initial weight, stool consistency, and degree of intestinal bleeding of the mouse. The criteria for calculation of DAI are shown in Table 10 below, and DAI was evaluated on days 0, 1, 2, 3, 4, 5, 6, 7, and 8.

Photostability test = type: physicochemical
Protocol: For a photostability test, 10 mg of Compound 1a was exposed to 1.2 million lux hours of ultraviolet and visible light at room temperature. For an oxidation stability test, 0.2 mL of 30% H2O2 and 1 mg of Compound 1a were placed in a 2-mL vial and stored at 25° C. for up to 24 hours. The photostability and oxidation stability conditions used to evaluate the fumarate salt of Compound 1 and the evaluation results are as follows.

hERG potassium ion channel, sequence (Q12809 whole entry): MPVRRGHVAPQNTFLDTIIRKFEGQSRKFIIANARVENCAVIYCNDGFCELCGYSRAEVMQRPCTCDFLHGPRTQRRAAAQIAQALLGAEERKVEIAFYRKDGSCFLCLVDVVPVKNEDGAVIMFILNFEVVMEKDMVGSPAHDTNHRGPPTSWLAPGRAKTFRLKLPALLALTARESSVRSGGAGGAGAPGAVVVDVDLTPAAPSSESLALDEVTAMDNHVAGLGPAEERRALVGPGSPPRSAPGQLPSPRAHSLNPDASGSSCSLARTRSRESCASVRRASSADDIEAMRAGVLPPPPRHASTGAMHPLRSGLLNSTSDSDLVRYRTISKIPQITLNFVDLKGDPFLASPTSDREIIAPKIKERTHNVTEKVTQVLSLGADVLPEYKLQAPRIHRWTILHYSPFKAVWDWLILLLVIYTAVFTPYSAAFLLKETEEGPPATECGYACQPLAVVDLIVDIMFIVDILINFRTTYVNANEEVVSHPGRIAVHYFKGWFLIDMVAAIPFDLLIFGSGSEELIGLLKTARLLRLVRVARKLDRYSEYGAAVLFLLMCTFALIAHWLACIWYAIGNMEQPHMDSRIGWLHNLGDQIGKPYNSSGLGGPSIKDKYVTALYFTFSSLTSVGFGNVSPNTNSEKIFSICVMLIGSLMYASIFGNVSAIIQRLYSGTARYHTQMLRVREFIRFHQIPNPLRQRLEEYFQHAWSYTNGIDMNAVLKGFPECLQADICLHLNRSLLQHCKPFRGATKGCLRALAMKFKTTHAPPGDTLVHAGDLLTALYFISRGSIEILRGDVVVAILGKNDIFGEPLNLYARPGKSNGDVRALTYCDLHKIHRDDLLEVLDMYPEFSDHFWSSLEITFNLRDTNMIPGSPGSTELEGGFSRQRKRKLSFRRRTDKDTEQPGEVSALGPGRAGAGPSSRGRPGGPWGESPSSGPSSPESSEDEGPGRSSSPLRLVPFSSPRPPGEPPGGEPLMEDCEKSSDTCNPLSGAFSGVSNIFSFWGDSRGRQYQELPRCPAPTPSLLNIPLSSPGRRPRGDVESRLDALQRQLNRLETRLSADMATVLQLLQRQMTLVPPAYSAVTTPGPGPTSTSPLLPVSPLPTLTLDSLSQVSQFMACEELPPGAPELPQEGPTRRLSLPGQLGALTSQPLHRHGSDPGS

## CCCCCCCCCCn1cc(CCC(N)(CO)CO)nn1 [Compound 1a, 2-amino-2-(2-(1-decyl-1H-1,2,3-triazol-4-yl)ethyl) propane-1,3-diol]
[1]; 1-week
  Purity %: 99.18%
  XRPD (physical stability): Almost similar (some changes
[1]; 2-week
  XRPD (physical stability): crystalline form was maintained; also recorded: Almost similar (some changes
[1]; Initial
  Purity %: 99.29%
  XRPD (physical stability): Crystalline
[2]
  Hill coefficient: 1.527
[2]; 30 μM
  compensated suppression rate (%) of hERG channel currents: 82.62±7.31%
[3]
  general symptoms (visual observation): no abnormal symptoms were observed
[3]; up to 24 hours
  heart rate: no change in the heart rate
[4]; 30 mg/kg/day orally
  kidney hydroxyproline level compared to control group: statistically significantly decreased
[4]; 90 mg/kg/day orally
  kidney fibrosis (tubular-interstitial index): statistically significantly decreased
  serum BUN level: 157.4 ± 32.3 mg/dL
  serum creatinine level: 0.90 ± 0.12 mg/dL
[5]; 0.5% Methylcellulose, target 2 mg/mL
  Visual observation: Clear solution
[5]; 25 °C, all of the aqueous media except phosphate buffer (pH 6.8)
  solubility at 24 h: > 2000 µg/mL
[5]; FaSSIF (pH 6.5), target 2 mg/mL
  Visual observation: Clear solution
[5]; FeSSIF (pH 5.8), target 2 mg/mL
  Visual observation: Clear solution
[5]; SGF (pH 2.0), target 2 mg/mL
  Visual observation: Clear solution
[5]; Water, target 2 mg/mL
  Visual observation: Clear solution
[5]; aqueous buffer, pH 3.0 Citrate buffer, 25° C., 24 hours, final pH 3.42
  solubility at 24 h: > 2000 µg/mL
[5]; aqueous buffer, pH 4.7 Acetate buffer, 25° C., 24 hours, final pH 5.11
  solubility at 24 h: > 2000 µg/mL
[5]; aqueous buffer, pH 6.8 Phosphate buffer, 25° C., 24 hours, final pH 6.94
  solubility at 24 h: 306 µg/mL (≈ 0.937 mM)
[5]; aqueous with cosolvent or surfactant or cyclodextrin, 0.5% Methylcellulose, 25° C., 24 hours, final pH 6.04
  solubility at 24 h: > 2000 µg/mL
[5]; pH 1.2 HCl buffer, target 2 mg/mL
  Visual observation: Clear solution
[5]; pH 3.0 Citrate buffer, target 2 mg/mL
  Visual observation: Clear solution
[5]; pH 4.7 Acetate buffer, target 2 mg/mL
  Visual observation: Clear solution
[5]; pH 6.8 Phosphate buffer, target 2 mg/mL
  Visual observation: White suspension
[5]; simulated gastric fluid, SGF (pH 2.0), 25° C., 24 hours, final pH 3.02
  solubility at 24 h: > 2000 µg/mL
[5]; simulated gastric fluid, pH 1.2 HCl buffer, 25° C., 24 hours, target 2 mg/mL, final pH 1.75
  solubility at 24 h: > 2000 µg/mL
[5]; FaSSIF (pH 6.5), 25° C., 24 hours, final pH 6.60
  solubility at 24 h: > 2000 µg/mL
[5]; FeSSIF (pH 5.8), 25° C., 24 hours, final pH 5.97
  solubility at 24 h: > 2000 µg/mL
[5]; Water, 25° C., 24 hours, final pH 6.04
  solubility at 24 h: > 2000 µg/mL
[6]; 5 mg/kg orally
  clinical indicators (weight loss, stool consistency, intestinal bleeding) versus ozanimod: equivalent to or higher than those of ozanimod
[6]; 10 mg/kg orally
  clinical indicators (weight loss, stool consistency, intestinal bleeding) versus ozanimod: equivalent to or higher than those of ozanimod
Photostability test; Photostability 1.2 million lux hours exposed
  Purity %: 99.52%
Photostability test; Photostability 1.2 million lux hours unexposed
  Purity %: 99.70%
